Data as given in US9604933B2, “Pyrazolochalcones as potential anticancer agents” (COUNCIL OF SCIENTIFIC AND INDUSTRIAL RESEARCH, priority 2013, dated 2017).
Where two headings read alike, the source gives them in different places.

Tests used:
KM12 = test: NCI SRB cytotoxicity, colon KM12; type: cell-based; settings: Homo sapiens, 48 h exposure
Protocol: (§1) The pyrazolochalcones (7e, 8e, 10e, 11e, 12e, 13e and 8f) have been tested against fifty nine human tumor cell lines derived from nine cancer types (leukemia, non-small cell lung cancer, colon cancer, CNS cancer, melanoma, ovarian cancer, renal cancer, prostate cancer and breast cancer) as per the NCI protocol. For each compound, dose response curves for individual cell lines have been measured at a minimum of five concentrations at 10 fold dilutions. A protocol of 48 h continuous drug exposure has been used, and a sulforhodamine B (SRB) protein assay has been used to estimate cell viability or growth. The concentration for 50% cell growth inhibition (GI50), 50% cell death (LC50, 50% growth) and total cell growth inhibition (TGI, 0% growth) values were tabulated (Table-1). DMSO was used as control to calculate the values of GI50, LC50 and TGI. The compounds 7e, 8e, 10e, 11e, 12e, 13e and 8f has been evaluated for their in vitro cytotoxicity in […] cell lines from nine human cancer types of leukemia (K-562, SR), non-small cell lung (Hop-62, NCI-H226, NCI-H522), colon (HCT-116, HCT-15, HCC-2998), CNS (SF-539), melanoma (SK-MEL-5, UACC-62, M14), ovarian (IGROV1), renal (A498), prostate (PC3) and breast (BT-549, MDA-MB-435, HS578T) origin. The results are expressed as percent of cell growth determined relative to that of untreated control cells (Table 2).

IGROV1 = test: NCI SRB cytotoxicity, ovarian IGROV1; type: cell-based; settings: Homo sapiens, IGROV-1, 48 h exposure
Protocol: as §1

SW-620 = test: NCI SRB cytotoxicity, colon SW-620; type: cell-based; settings: Homo sapiens, 48 h exposure
Protocol: as §1

SK-MEL-2 = test: NCI SRB cytotoxicity, melanoma SK-MEL-2; type: cell-based; settings: Homo sapiens, 48 h exposure
Protocol: as §1

HL-60(TB) = test: NCI SRB cytotoxicity, leukemia HL-60(TB); type: cell-based; settings: Homo sapiens, 48 h exposure
Protocol: as §1

MDA-MB-435 [1] = test: NCI SRB cytotoxicity, breast panel MDA-MB-435; type: cell-based; settings: Homo sapiens, 48 h exposure
Protocol: as §1

OVCAR-5 = test: NCI SRB cytotoxicity, ovarian OVCAR-5; type: cell-based; settings: Homo sapiens, 48 h exposure
Protocol: as §1

MDA-MB-435 [2] = test: NCI SRB cytotoxicity, melanoma MDA-MB-435; type: cell-based; settings: Homo sapiens, Melanoma panel MDA-MB-435, 48 h exposure
Protocol: as §1

OVCAR-4 = test: NCI SRB cytotoxicity, ovarian OVCAR-4; type: cell-based; settings: Homo sapiens, 48 h exposure
Protocol: as §1

OVCAR-8 = test: NCI SRB cytotoxicity, ovarian OVCAR-8; type: cell-based; settings: Homo sapiens, 48 h exposure
Protocol: as §1

HT29 = test: NCI SRB cytotoxicity, colon HT29; type: cell-based; settings: Homo sapiens, HT-29, 48 h exposure
Protocol: as §1

BT-549 = test: NCI SRB cytotoxicity, breast BT-549; type: cell-based; settings: Homo sapiens, 48 h exposure
Protocol: as §1

OVCAR-3 = test: NCI SRB cytotoxicity, ovarian OVCAR-3; type: cell-based; settings: Homo sapiens, 48 h exposure
Protocol: as §1

NCI-H522 = test: NCI SRB cytotoxicity, non-small cell lung NCI-H522; type: cell-based; settings: Homo sapiens, 48 h exposure
Protocol: as §1

Prostate = test: NCI SRB cytotoxicity, prostate panel average; type: cell-based, human; settings: average of cell lines
Protocol: as §1
(§2) Each cancer type represents the average of six to eight different cancer cell lines.

Breast = test: NCI SRB cytotoxicity, breast panel average; type: cell-based, human; settings: average of cell lines
Protocol: as §1, §2

786-0 = test: NCI SRB cytotoxicity, renal 786-0; type: cell-based; settings: Homo sapiens, 48 h exposure
Protocol: as §1

human tumor cell lines = test: NCI SRB cytotoxicity, all fifty nine human tumor cell lines; type: cell-based; design: Log10 TGI mean graph midpoint (MG_MID): unit not given here; settings: for GI50: Homo sapiens
Protocol: as §1
The mean graph midpoint values of Log10 TGI and Log10 LC50 as well as Log10 GI50 for compounds 7e, 8e, 10e, 11e, 12e, 13e and 8f is listed in Table-3. […] The mean graph mid points of Log10 TGI and Log10, LC50 have shown similar pattern to the log10 GI50 mean graph mid points.

COLO-205 = test: NCI SRB cytotoxicity, colon COLO-205; type: cell-based; settings: Homo sapiens, 48 h exposure
Protocol: as §1

HCT-116 = test: NCI SRB cytotoxicity, colon HCT-116; type: cell-based; settings: Homo sapiens, 48 h exposure
Protocol: as §1

HCT-15 = test: NCI SRB cytotoxicity, colon HCT-15; type: cell-based; settings: Homo sapiens, 48 h exposure
Protocol: as §1

K-562 = test: NCI SRB cytotoxicity, leukemia K-562; type: cell-based; settings: Homo sapiens, K562, 48 h exposure
Protocol: as §1

RPMI-8226 = test: NCI SRB cytotoxicity, leukemia RPMI-8226; type: cell-based; settings: Homo sapiens, 48 h exposure
Protocol: as §1

M14 = test: NCI SRB cytotoxicity, melanoma M14; type: cell-based; settings: Homo sapiens, 48 h exposure
Protocol: as §1

UACC-257 = test: NCI SRB cytotoxicity, melanoma UACC-257; type: cell-based; settings: Homo sapiens, 48 h exposure
Protocol: as §1

Renal = test: NCI SRB cytotoxicity, renal panel average; type: cell-based, human; settings: average of cell lines
Protocol: as §1, §2

NCI-H23 = test: NCI SRB cytotoxicity, non-small cell lung NCI-H23; type: cell-based; settings: Homo sapiens, 48 h exposure
Protocol: as §1

NCI-H226 = test: NCI SRB cytotoxicity, non-small cell lung NCI-H226; type: cell-based; settings: Homo sapiens, 48 h exposure
Protocol: as §1

SN12C = test: NCI SRB cytotoxicity, renal SN12C; type: cell-based; settings: Homo sapiens, 48 h exposure
Protocol: as §1

HOP-62 = test: NCI SRB cytotoxicity, non-small cell lung HOP-62; type: cell-based; settings: Homo sapiens, 48 h exposure
Protocol: as §1

MDA-MB-231/ATCC = test: NCI SRB cytotoxicity, breast MDA-MB-231/ATCC; type: cell-based; settings: Homo sapiens, 48 h exposure
Protocol: as §1

CAKI-1 = test: NCI SRB cytotoxicity, renal CAKI-1; type: cell-based; settings: Homo sapiens, 48 h exposure
Protocol: as §1

HS 578T = test: NCI SRB cytotoxicity, breast HS 578T; type: cell-based; settings: Homo sapiens, 48 h exposure
Protocol: as §1

SK-MEL-5 = test: NCI SRB cytotoxicity, melanoma SK-MEL-5; type: cell-based; settings: Homo sapiens, 48 h exposure
Protocol: as §1

MALME-3M = test: NCI SRB cytotoxicity, melanoma MALME-3M; type: cell-based; settings: Homo sapiens, 48 h exposure
Protocol: as §1

[3] = Homo sapiens, read-out: Log10 LC50 (concentration in mol/L causing 50% cell death) (converted)

Compound: COc1cc(-c2cc(/C=C/C(=O)c3ccc(F)c(F)c3)[nH]n2)cc(OC)c1OC [13e, (E)-1-(3,4-difluorophenyl)-3-(3-(3,4,5-trimethoxyphenyl)-1H-pyrazol-5-yl)prop-2-en-1-one]
- GI50 (KM12): 3060 nM
- GI50 (IGROV1): 3620 nM
- GI50 (SW-620): 3420 nM
- GI50 (SK-MEL-2): 2300 nM
- GI50 (HL-60(TB)): 2480 nM
- GI50 (MDA-MB-435 [1]): 2220 nM
- GI50 (OVCAR-5): 4480 nM
- GI50 (MDA-MB-435 [2]): 2880 nM
- GI50 (OVCAR-4): 2200 nM
- GI50 (OVCAR-8): 2880 nM
- GI50 (HT29): 2620 nM
- GI50 (BT-549): 4110 nM
- GI50 (OVCAR-3): 2390 nM
- GI50 (NCI-H522): 1570 nM
- CC50 (Prostate; [3]): 0.0001 mol/L
- Log10 GI50 (concentration in mol/L causing 50% growth inhibition) (Prostate): −5.78 mol/L
- Log10 TGI (concentration in mol/L causing total growth inhibition (0% growth)) (Prostate): −5.24 mol/L
- CC50 (Breast; [3]): 97700 nM
- Log10 GI50 (concentration in mol/L causing 50% growth inhibition) (Breast): −5.56 mol/L
- Log10 TGI (concentration in mol/L causing total growth inhibition (0% growth)) (Breast): −4.83 mol/L
- GI50 (786-0): 3350 nM
- GI50 (human tumor cell lines; across fifty nine cell lines in nine cell panels, read-out: GI50 value range): 180 to 29200 nM
- GI50 (human tumor cell lines; against human tumor cell lines, read-out: Log10 GI50 mean graph midpoint (MG_MID) (converted)): 2820 nM
- cytotoxicity (human tumor cell lines; against cancer cell lines, in words): significant cytotoxicity
- Log10 TGI mean graph midpoint (MG_MID) (human tumor cell lines; against human tumor cell lines): −4.74
- LC50 (human tumor cell lines; against human tumor cell lines, read-out: Log10 LC50 mean graph midpoint (MG_MID) (converted)): 81300 nM
- GI50 (COLO-205): 1690 nM
- GI50 (HCT-116): 4000 nM
- GI50 (HCT-15): 3010 nM
- GI50 (K-562): 3310 nM
- GI50 (RPMI-8226): 1760 nM
- GI50 (M14): 2700 nM
- GI50 (UACC-257): 1750 nM
- CC50 (Renal; [3]): 93300 nM
- Log10 GI50 (concentration in mol/L causing 50% growth inhibition) (Renal): −5.56 mol/L
- Log10 TGI (concentration in mol/L causing total growth inhibition (0% growth)) (Renal): −4.71 mol/L
- GI50 (NCI-H23): 2600 nM
- GI50 (NCI-H226): 3720 nM
- GI50 (SN12C): 3370 nM
- GI50 (HOP-62): 4390 nM
- GI50 (MDA-MB-231/ATCC): 1640 nM
- GI50 (CAKI-1): 2980 nM
- GI50 (HS 578T): 3580 nM
- GI50 (SK-MEL-5): 2270 nM
- GI50 (MALME-3M): 2960 nM
